Measured values: paper PMC5034901, “Development & automation of a novel [^18F]F prosthetic group, 2-[^18F]-fluoro-3-pyridinecarboxaldehyde, and its application to an amino(oxy)-functionalised Aβ peptide” (Applied Radiation and Isotopes, 2016)

Test: Pre-clinical PET biodistribution
Format: in vivo
Settings: Wistar rats, radiolabel carried on [18F]RI-OR2-TAT
Experimental: Wistar rats (n =3) were anaesthetised using isoflurane (induction 4% and maintained 1.5%) in 70% N2O and 30% O2 mixture. […] All scans were carried out using a Siemens Inveon® PET-CT scanner. The acquisition protocol parameters consisted of a preliminary CT scan to attain attenuation correction factors followed by a 1 h PET acquisition with time coincidence window of 3.432 ns and levels of energy discrimination set between 350 keV and 650 keV. Images were reconstructed and analysed as described elsewhere ([Boutin et al., 2015]).

O=Cc1cccnc1[18F] [[^18F]FPCA, 2-[^18F]-Fluoro-3-pyridinecarboxaldehyde]
stability to defluorination (bone uptake of radioactivity): relatively little bone uptake
